Laboratory results reported in US7632814B2, “HYD1 peptides as anti-cancer agents” (University of South Florida, priority 2006, dated 2009).
Where no end group is shown, it is not given here. [ ]: non-standard residue; d: D form. 5(6)‑FAM = 5(6)-carboxyfluorescein

How the values were obtained:
Myeloma cells = experiment: Apoptotic activity of HYD1 variants in myeloma cells (cell line not stated); assay type: cell-based
Method: Myeloma cells were plated at a density of 400,000 cells per ml in a 24 well plate. Cells were treated with the indicated dose of the peptide for 24 hours. Following 24 hrs of peptide exposure, apoptotic cells were detected using Annexin V staining and FACS analysis. Ten thousand events were analyzed by flow cytometry (Becton Dickinson, San Jose, Calif.). Experiments were performed in triplicate and repeated twice. Shown is a representative figure.

β1 integrin = target: T1, β1 integrin (Homo sapiens, UniProt P05556); experiment: Binding of peptide to the cell surface
T1 construct: endogenous in cells
Source text: Another aspect of the invention concerns a method of identifying modulators of peptide binding (a screen for molecules that displace peptide binding). Agents that are identified as being capable of competing with the HYD1 peptides of the invention for binding to β1 integrin may have utility as cytotoxic agents for research or therapy (e.g., for cancer treatment). The method comprising providing a candidate agent (such as a chemical compound, antibody, nucleic acid, or peptide); and determining whether the agent inhibits (e.g., disrupts, prevents, or interferes with), the ability of a HYD1 peptide of the invention (HYD1 or a fragment or variant thereof) to bind to β1 integrin on a cell surface (e.g., cancer cell surface) and/or inhibit β1 integrin mediated adhesion, in vitro or in vivo (e.g., in an animal model). Preferably, the cell is a cancer cell such as a myeloma cell or a cell of other cancer types (see, for example Table 1). Preferably, the peptide is labeled with a detectable moiety (e.g., a fluorescent tag, such as […]) to facilitate the determining step. Examples of controls that may be utilized in carrying out the screening method include, but are not limited to, unlabeled HYD1 peptides (HYD1, or a fragment or variant thereof); scrambled peptides (such as HYD1S); β1 integrin blocking antibody; and non-specific surface antigen binding antibody (such as CD138 for myeloma cells). Advantageously, using the screening assay, labeled HYD1 or fragments or variants thereof, can be used to screen candidates such as small molecules, on natural product libraries, in a rapid, high-throughput fashion. […] Fluorescence polarization (FP) analysis can be used to screen small molecule or natural product libraries for discovery of novel compounds that mimic the specific binding and potentially the biological activity of HYD1. The FP assay is based on the extent of depolarization of the free versus bond peptide, which can be accurately measured on commercially available FP plate readers. […] In summary, a high throughput screen (HTS) can be used to bind small molecules prior to the addition of an HYD1 probe and molecules of interest can be identified by displacement of bond peptide, with a corresponding increase in unbound peptide by FP analysis. An analogous high-throughput binding assay based on fluorescence polarization, which allows screening for small molecules that bind to the STAT3 SH2 domain, is described in Schust J. and Berg T., Anal Biochem., 2004 Jul. 1; 330(1):114-8. […]

prostate tumor cell = experiment: Cell adhesion supported by immobilized HYD1 fragments and variants; assay type: cell-based; conditions: truncation and alanine substitution of HYD1
Source text: Defining the minimal region of HYD1 necessary to potentiate drug-induced apoptosis in suspension and adherent cultures is of interest. Below is a study to determine the minimal HYD1 sequence required to block prostate tumor cell migration. Similar studies as those outlined below and using the same peptide sequences will be used to determine the minimal amino acid sequence required for potentiation of drug induced apoptosis.
To determine the minimal element of immobilized HYD1 required for cell adhesion, the N and C terminus was systematically truncated one amino acid at a time (FIG. 14A). Most of the adhesion activity was retained with the deletion of lys-glycine from the C-terminus. However, the peptide no longer supported cell adhesion if the next residue, tryptophan was removed. Deletion of the N-terminus on the other hand, was tolerated very well until the third residue, methionine, was removed, leading to gradual decrease in cell binding.

[1] = system: DU145 prostate cancer cells; conditions: DeRoock et al. 2001; cited from earlier work
H929 cells [2] = experiment: HS-5 co-culture (SF+A) model of drug resistance, melphalan apoptosis; assay type: cell-based; conditions: H929 cells co-cultured with HS-5, 50 μg/ml peptide, with melphalan
Method: (§1) Co-culture model. HS-5/GFP cells were plated at a density of 500,000 cells per ml and incubated overnight. Myeloma cells were incubated with vehicle control (water), 50 μg/ml HYD1 or 50 μg/ml HYD1S 30 minutes prior to the addition of myeloma cells (400,000 cell/ml) to either control plates or plates containing HS-5 cells. Myeloma cells were incubated with HS-5 cells for three hours prior to the addition of melphalan. Apoptotic cells were measured in GFP negative myeloma cells, by annexin PE staining and FACS analysis (n=9). ANOVO was performed to determine significance between conditions.
(§2) Briefly, 8226 myeloma cells were pre-incubated with varying concentrations of either HYD1 or the scrambled HYD1S peptide for 30 minutes prior to allowing cells to attach to FN for two hours. Following two hours of cell adhesion, the amount of cells adherent to FN was measured. The next objective was to determine whether treatment of tumor cells with HYD1 results in potentiation of melphalan induced cell death in the BMS co-culture model (SF+A). […] For these studies, the HYD1 and HYD1S were pre-incubated with the […] for 30 minutes, and then cells and culture media containing the peptide were placed into the S-5 culture dish. Myeloma cells were co-cultured for an additional 3 hours with HS-5 cells before the addition of melphalan. Twenty-four hours after drug treatment, apoptosis was measured by Annexin V-PE positive events by FACS analysis. The HS-5 cells constitutively express GFP and thus it is possible to gate GFP negative cells only (myeloma cells) for the apoptotic analysis.

8226 cells = experiment: as above; assay type: cell-based; conditions: 8226 cells co-cultured with HS-5, 50 μg/ml peptide, with melphalan
Method: as §1, §2

H929 cells [3] = experiment: Lysosensor staining of acidic vesicles, confocal microscopy; assay type: cell-based; conditions: 100 μg/ml, six hours, compared to control cells
Method: Lysosensor green was used to detect acidic compartments and live cell imaging was performed by confocal microscopy. Shown is a representative figure. The experiment was repeated three independent times and similar results were obtained.
Lysosensor staining. 35 mm glass bottom microwell dishes were incubated with 10 ul Cell-tak (BD biosciences San Jose, Calif.) and 290 ul 0.5M sodium bicarbonate (Sigma) for 30 minutes. The plates were aspirated and 200,000H929 or 8226 cells were plated. Cells were then treated with either water (VC), 100 μg/ml HYD1 or 100 μg/ml HYD1S for 6 hours. After the 6-hour incubation, the plates were aspirated and washed once with warm media. Media containing 1 μM lysosensor DND-189 (Molecular Probes, Carlsbad Calif.) and 20 μM Hoechst 33342 (Molecular Probes) was added and samples were incubated for an additional 30 minutes. Samples were analyzed with a Leica DMI6000 inverted TCS SP5 confocal scanner (Leica Microsystems, Germany). 405 Diode and Argon laser lines were applied to excite the samples and tunable filters were used to minimize the crosstalk between fluorochromes. Gain, offset, and pinhole setting were identical for all samples within the treatment group. Image sections at […] were captured with photomultiplier detectors and maximum projections were prepared with the LAS AF software version 1.6.0 build 1016 (Leica Microsystems, Germany).

H929 cells [4] = experiment: Electron microscopy of double membrane vesicles; assay type: cell-based; conditions: 100 μg/ml, 4 hours
Method: H929 cells were treated with either 100 µg/ml HYD1 (FIG. 24A) or HYD1S (FIG. 24B) for four hours and processed for electron microscopy as described in materials and methods.
Electron Microscopy. H929 cells were treated for four hours with either 100 μg/ml HYD1 or HYD1S. After peptide treatment, the samples were fixed overnight in 2.5% glutaraldehyde in 0.1M phosphate buffer, pH 7.2 overnight at four degrees. Following fixation, the cells were rinsed 2 times for 10 minutes each in 0.1M phosphate buffer, pH 7.2, at 4° C. The cells were loosely pelleted in microcentrifuge tubes at 500×G for 3 minutes. The buffer was removed from the cells and replaced with 1% osmium tetroxide in the above buffer at 4° C. The cells were resuspended and post-fixed for 1 hour, then loosely pelleted and rinsed in the above buffer. This step was repeated for a total of 3 rinses of 5 minutes each, with the cells being resuspended after each buffer change. Cells were dehydrated through a graded series of acetone, 30%, 50%, 70%, and 95% acetone in water, 5 minutes per change with loose pelleting at 750×G for 5 minutes, then resuspension for each step. The cells were then dehydrated through three changes of 100% acetone, 10 minutes per change, with a 5 minute pelleting step at 1000×G, followed by resuspension in each step. […]

[5] = system: phospho Pyk2 in H929 cells; experiment: Phospho-Pyk2 levels in suspension culture (immunoblot); assay type: cell-based; conditions: H929 cells cultured in suspension
Source text: Based upon the observation that HYD1 increased melphalan induced apoptosis in suspension cultures, whether treatment with HYD1 inhibits phosphorylation of a downstream mediator of β1 integrin signaling (Pyk2) in suspension cultures was investigated.

T1 sequence (P05556 21-798): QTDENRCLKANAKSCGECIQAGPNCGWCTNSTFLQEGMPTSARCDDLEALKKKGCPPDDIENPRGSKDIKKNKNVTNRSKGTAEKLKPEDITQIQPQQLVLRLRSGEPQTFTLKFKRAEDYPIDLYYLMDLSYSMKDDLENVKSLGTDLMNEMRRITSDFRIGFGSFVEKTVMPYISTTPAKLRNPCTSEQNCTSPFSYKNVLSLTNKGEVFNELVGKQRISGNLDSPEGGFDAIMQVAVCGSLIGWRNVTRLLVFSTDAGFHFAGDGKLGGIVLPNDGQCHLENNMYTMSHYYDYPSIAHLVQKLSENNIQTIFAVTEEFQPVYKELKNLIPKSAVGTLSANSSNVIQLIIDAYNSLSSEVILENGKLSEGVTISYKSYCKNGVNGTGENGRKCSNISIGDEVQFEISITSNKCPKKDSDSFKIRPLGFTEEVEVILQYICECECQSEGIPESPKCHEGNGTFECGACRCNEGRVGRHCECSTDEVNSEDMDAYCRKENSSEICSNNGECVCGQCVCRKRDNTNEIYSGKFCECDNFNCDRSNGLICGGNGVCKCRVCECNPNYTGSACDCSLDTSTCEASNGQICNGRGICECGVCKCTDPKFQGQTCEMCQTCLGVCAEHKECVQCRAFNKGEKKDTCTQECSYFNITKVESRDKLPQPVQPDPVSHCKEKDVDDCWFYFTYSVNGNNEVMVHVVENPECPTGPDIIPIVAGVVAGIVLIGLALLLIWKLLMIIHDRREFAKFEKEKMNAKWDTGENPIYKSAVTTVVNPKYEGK

FAM-HYD1: HYD1 with R=5(6)-FAM (carboxyfluorescein) ({5(6)‑FAM}-[dK][dI][dK][dM][dV][dI][dS][dW][dK]G)
biological activity of conjugated HYD1 (Myeloma cells): retains biological activity
binding to the cell surface (β1 integrin): binds to the cell surface
blocking of cell surface binding by β1 integrin antibody (β1 integrin): can be blocked

ikmvisw (IKMVISW; HYD1 fragment)
cell adhesion supported by immobilized peptide (prostate tumor cell): retained full cell adhesion activities

wiksmkivkg ([dW][dI][dK][dS][dM][dK][dI][dV][dK]G) [HYD1S, reference compound]
inhibition of cell adhesion to extracellular matrixes [1]: not to inhibit cell adhesion
potentiation of melphalan-induced apoptosis in the SF+A model (H929 cells [2]): but not the scrambled peptide (HYD1S) potentiates melphalan-induced cell death
potentiation of melphalan-induced apoptosis in the SF+A model (8226 cells): but not the scrambled peptide (HYD1S) potentiates melphalan-induced cell death
number and size of acidic vesicles (H929 cells [3]): large vesicles noted with HYD1 treatment in both the lysosensor staining and EM analysis were not detected
formation of double membranes / vesicles (EM) (H929 cells [4]): small vesicles fused with lysosomes were observed
phospho Pyk2 levels [5]: but not HYD1S reduces phospho Pyk2 levels
